# Assay results from paper PMC8151276, “An Integrated Approach toward NanoBRET Tracers for Analysis of GPCR Ligand Engagement” (Molecules, 2021).
# Biological target: T1, NPFFR2 (Homo sapiens, UniProt Q9Y5X5)
# T1 construct: purchased Promega (in-house HiBiT-GPCR construct library, NanoBRET)
# Assay: NanoBRET screen HiBiT-NPFFR2 in HEK293
# Format: binding
# Procedure: Each tracer candidate was screened across the entire library of HiBiT-GPCR constructs using NanoBRET as the detection modality. As depicted in Figure 4A, the specificity of interactions was evaluated through decrease in BRET due to competitive displacement of a bound tracer by excess parental compound. Each tracer was analyzed for binding to each HiBiT-GPCR fusion in the absence and in the presence of competing parental compound. Briefly, HEK293 cells were transfected with HiBiT-GPCR constructs diluted into promoterless DNA to reduce expression and maximize translocation to the cell surface. Each tracer candidate was then screened at concentrations of 1 μM and 0.1 μM across cells expressing these fusions. Cells were treated for 1.5 h with tracer either alone or in the presence of 20 μM competing parental compound (i.e., control). BRET was measured upon addition of purified LgBiT and subsequent complementation with HiBiT genetically fused to a GPCR. The specificity of interactions was assessed through a decrease in BRET signal due to competitive displacement of the bound tracer. To further gauge the robustness of these interactions, the fold response over the control (i.e., BRETtracer/BRETcontrol) was calculated. We chose a 1.5-fold response, which translates to ≥7-fold signal over noise as the minimal threshold required to score an interaction as positive. […]. Below we highlight the screening results obtained for our exemplary fluorescent tracers based on Clozapine, Amitriptyline and AZD1283.
# HiBiT-GPCR DNA constructs were diluted in 10 mM Tris pH 8 to a final concentration of 0.01 μg/μL, arrayed in 96-well plates and stored at −20 °C. For transfection, HEK293 cells were suspended in Opti-MEM (without phenol red) supplemented with 2% fetal bovine serum (Seradigm) and 100 units/mL penicillin–streptomycin (Gibco) at a final concentration of 220,000 cells/mL and dispensed into white 96-well plates at 90 μL/well. Subsequent transfections and screens were carried using an Agilent Bravo Automated Liquid Handling Platform. First, the 96-well HiBiT DNA arrays were diluted 25-fold in Opti-MEM (without serum or phenol red) to a final concentration of 0.0004 μg/μL and 20 μL of the diluted DNAs were transferred into new 96-well plates. Next, promoterless carrier DNA (1 μg/μL) was diluted 25-fold (0.04 μg/μL) and then dispensed into the diluted arrays at 20 μL/well. Following brief mixing, Viafect transfection reagent (Promega) diluted 16-fold into Opti-MEM was dispensed into the plates at 40 μL/well. After mixing by pipetting, plates were incubated for 10 min on the pipetting station deck. The DNA-transfection reagent complexes were then added to plates containing cells. To facilitate the screen, 10 μL of DNA-transfection reagent complexes were added in duplicates to the top 4 and bottom 4 rows, resulting in two identical 48-well arrays per plate. Plates with transfected cells were incubated for 18–20 h at 37 °C/5% CO2. A screen of each tracer across the entire library using two different concentrations requires duplicate plates of transfected cells. Depending on the number of tracers being screened, transfections can be scaled up using the same ratios. The next day, for each tracer, four 20× screening solutions in tracer dilution buffer (Promega) were prepared: two duplicates at final concentration of 20 μM and two duplicates at a final concentration of 2 μM. A competing unmodified compound was added to one of each duplicate at a final concentration of 400 μM. The four resulting solutions were diluted 4-fold in Opti-MEM without serum or phenol red to generate 5× solutions (5 µM and 0.5 µM tracer +/− 100 μM competing compound). To screen the library, a BioTek MultiFlo FX liquid dispenser was used to dispense 22.5 µL of tracer solution to the top 4 rows and 22.5 µL tracer + competing compound solution to the 4 bottom rows. Plates were briefly mixed on an orbital shaker and incubated for 1.5 h at room temperature. […]
# T1 sequence (Q9Y5X5 whole entry): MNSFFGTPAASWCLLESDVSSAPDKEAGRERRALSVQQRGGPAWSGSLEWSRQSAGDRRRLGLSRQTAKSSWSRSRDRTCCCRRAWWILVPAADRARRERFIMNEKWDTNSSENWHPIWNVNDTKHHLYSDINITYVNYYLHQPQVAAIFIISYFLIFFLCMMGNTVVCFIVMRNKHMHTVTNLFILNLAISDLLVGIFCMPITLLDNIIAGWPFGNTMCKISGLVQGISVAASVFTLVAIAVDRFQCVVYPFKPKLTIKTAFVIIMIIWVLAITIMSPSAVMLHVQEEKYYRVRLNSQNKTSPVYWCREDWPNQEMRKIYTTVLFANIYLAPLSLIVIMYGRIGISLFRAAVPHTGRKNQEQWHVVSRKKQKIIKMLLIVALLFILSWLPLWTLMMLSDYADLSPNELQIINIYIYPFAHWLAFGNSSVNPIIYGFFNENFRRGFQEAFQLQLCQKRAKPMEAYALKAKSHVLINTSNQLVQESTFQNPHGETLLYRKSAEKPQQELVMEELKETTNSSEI
SMILES,"NanoBRET Fold Response (NPFFR2, tracer 0.1μM)","NanoBRET Fold Response (NPFFR2, tracer 1μM)",also measured
CCOC(=O)c1cc(C#N)c(N2CCC(C(=O)NS(=O)(=O)Cc3ccccc3/C=C/C(=O)NCCNC(=O)CCc3ccc4n3[B-](F)(F)[N+]3=C(c5ccc[nH]5)C=CC3=C4)CC2)nc1C [AZD1283-1-NB590],,,"NanoBRET Fold Response (NPFFR2, 0.1μM): 1.01; NanoBRET Fold Response (NPFFR2, 1μM): 1.15"
N#CN=C(NCCCOc1cccc(CN2CCCCC2)c1)NCCNC(=O)CCOCCOCCOCCOCCNC(=O)CCc1ccc2n1[B-](F)(F)[N+]1=C(c3ccc[nH]3)C=CC1=C2 [Aminopotentidine-2-NB590],0.98,1.02,
CN(C)CCC=C1c2ccccc2CCc2ccc(C(=O)NCCNC(=O)CCOCCOCCOCCOCCNC(=O)CCc3ccc4n3[B-](F)(F)[N+]3=C(c5ccc[nH]5)C=CC3=C4)cc21 [Amitriptyline-b-2-NB590],,,NanoBRET Fold Response (tracer at 0.1μM): 1.00; NanoBRET Fold Response (tracer at 1μM): 1.03
COc1ccc2c(n1)c(CCNC(C)=O)cn2CCNC(=O)CCc1ccc2n1[B-](F)(F)[N+]1=C(c3ccc[nH]3)C=CC1=C2 [Azamelatonin-1-NB590],,,NanoBRET Fold Response (0.1μM tracer): 1.16; NanoBRET Fold Response (1μM tracer): 0.97
COc1ccc2[nH]c(-c3ccc(CNC(=O)CCOCCOCCOCCOCCNC(=O)CCc4ccc5n4[B-](F)(F)[N+]4=C(c6ccc[nH]6)C=CC4=C5)cc3)c(CCNC(C)=O)c2n1 [AzomelatoninICO9-2-NB590],,,NanoBRET Fold Response (0.1μM tracer): 0.91; NanoBRET Fold Response (1μM tracer): 1.06
O=C(CCOCCOCCOCCOCCNC(=O)CCc1ccc2n1[B-](F)(F)[N+]1=C(c3ccc[nH]3)C=CC1=C2)NCCCN1CCN(C2=Nc3cc(Cl)ccc3Nc3ccccc32)CC1 [Clozapine-a-2-NB590],,,"NanoBRET Fold Response (NPFFR2, 0.1μM tracer): 1.00; NanoBRET Fold Response (NPFFR2, 1μM tracer): 0.97"
CN1CCN(C2=Nc3cc(Cl)ccc3Nc3ccc(CNC(=O)CCOCCOCCOCCOCCNC(=O)CCc4ccc5n4[B-](F)(F)[N+]4=C(c6ccc[nH]6)C=CC4=C5)cc32)CC1 [Clozapine-b-2-NB590],,,"NanoBRET Fold Response (NPFFR2, 0.1μM tracer): 1.02; NanoBRET Fold Response (NPFFR2, 1μM tracer): 1.00"
CN1CCN(C2=Nc3cc(Cl)ccc3N(CC(=O)NCCOCCOCCOCCOCCNC(=O)CCc3ccc4n3[B-](F)(F)[N+]3=C(c5ccc[nH]5)C=CC3=C4)c3ccccc32)CC1 [Clozapine-c-2-NB590],,,"NanoBRET Fold Response (NPFFR2, 0.1μM tracer): 0.98; NanoBRET Fold Response (NPFFR2, 1μM tracer): 0.99"
O=C(CCOCCOCCOCCOCCNC(=O)CCc1ccc2n1[B-](F)(F)[N+]1=C(c3ccc[nH]3)C=CC1=C2)NCCCN1CCN(C2=Nc3ccccc3Oc3ccc(Cl)cc32)CC1 [Loxapine-a-2-NB590],1.05,1.03,
COc1ccccc1N1CCN(CCCCN2C(=O)c3ccc(CNC(=O)CCOCCOCCOCCOCCNC(=O)CCc4ccc5n4[B-](F)(F)[N+]4=C(c6ccc[nH]6)C=CC4=C5)cc3C2=O)CC1 [NAN-190-2-NB590],0.97,,
COc1ccccc1N1CCN(CCCCN2C(=O)c3ccc(CNC(=O)CCOCCNC(=O)c4ccc(CNC(=O)CCc5ccc6n5[B-](F)(F)[N+]5=C(c7ccc[nH]7)C=CC5=C6)cc4)cc3C2=O)CC1 [NAN-190-3-NB590],1.02,1.01,
O=C(CCc1ccc2n1[B-](F)(F)[N+]1=C(c3ccc[nH]3)C=CC1=C2)NCc1ccc(C(=O)NCCOCCC(=O)N[C@@H]2CC[C@@]3(O)[C@H]4Cc5ccc(O)c6c5[C@@]3(CCN4CC3CC3)[C@H]2O6)cc1 [Naltrexone-3-NB590],1.01,0.95,
Cc1cc2c(s1)Nc1ccccc1N=C2N1CCN(CCCNC(=O)CCOCCOCCOCCOCCNC(=O)CCc2ccc3n2[B-](F)(F)[N+]2=C(c4ccc[nH]4)C=CC2=C3)CC1 [Olanzapine-a-2-NB590],0.98,1.04,
O=C(CCc1ccc2n1[B-](F)(F)[N+]1=C(c3ccc[nH]3)C=CC1=C2)NCc1ccc(C(=O)NCCOCCOCCNCC(O)COc2cccc3ccccc23)cc1 (stereo not shown) [Propranolol-3-NB590],,,"NanoBRET Fold Response (NPFFR2, 0.1μM): 1.01; NanoBRET Fold Response (NPFFR2, 1μM): 1.01"
O=C(CCc1ccc2n1[B-](F)(F)[N+]1=C(c3ccc[nH]3)C=CC1=C2)NCCOCCOCCNC(=O)OCCOCCN1CCN(C2=Nc3ccccc3Sc3ccccc32)CC1 [Quetiapine-a-2-NB590],0.99,0.97,
Cc1nc2n(c(=O)c1CCN1CCC(c3noc4cc(F)ccc34)CC1)CCCC2OC(=O)NCCOCCOCCOCCOCCNC(=O)CCc1ccc2n1[B-](F)(F)[N+]1=C(c3ccc[nH]3)C=CC1=C2 (stereo not shown) [Risperidone-2-NB590],1.02,0.98,
CC(C)N(CC[C@H](c1ccccc1)c1cc(CCNC(=O)CCOCCOCCOCCOCCNC(=O)CCc2ccc3n2[B-](F)(F)[N+]2=C(c4ccc[nH]4)C=CC2=C3)ccc1O)C(C)C [Tolterodine-2-NB590],0.98,1.06,
CC(C)N(CC[C@H](c1ccccc1)c1cc(CCNC(=O)c2ccc(CNC(=O)CCc3ccc4n3[B-](F)(F)[N+]3=C(c5ccc[nH]5)C=CC3=C4)cc2)ccc1O)C(C)C [Tolterodine-BZ-NB590],1.00,1.02,
CCCn1c(=O)c2[nH]c(-c3ccc(OCC(=O)NCCNC(=O)CCOCCNC(=O)c4ccc(CNC(=O)CCc5ccc6n5[B-](F)(F)[N+]5=C(c7ccc[nH]7)C=CC5=C6)cc4)cc3)nc2n(CCC)c1=O [XAC-3-NB590],1.02,1.02,
